Laboratory results published in PubChem BioAssay (NCI).
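Exposure lasted 48 hours, with cells grown in 96-well plates and compounds tested at five concentrations. GI50 = concentration required for 50% inhibition of growth. TGI marks complete inhibition of growth.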

Experiments:
Assay in all cases: NCI tumour cell line growth inhibition, 48 h
HS 578T breast = system: HS 578T breast
IGROV1 ovarian = system: IGROV1 ovarian
LOX IMVI melanoma = system: LOX IMVI melanoma
MDA-MB-231 breast = system: MDA-MB-231 breast
MDA-MB-435 = system: MDA-MB-435
MDA-N = system: MDA-N
NCI/ADR-RES ovarian = system: NCI/ADR-RES ovarian
RPMI-8226 leukemia = system: RPMI-8226 leukemia
SF-539 CNS = system: SF-539 CNS
NCI-H226 lung = system: NCI-H226 lung
SNB-75 CNS = system: SNB-75 CNS

| Structure (SMILES) | TGI (HS 578T breast) [µM] | TGI (IGROV1 ovarian) [µM] | TGI (LOX IMVI melanoma) [µM] | TGI (MDA-MB-231 breast) [µM] | TGI (MDA-MB-435) [µM] | TGI (MDA-N) [µM] | TGI (NCI/ADR-RES ovarian) [µM] | TGI (RPMI-8226 leukemia) [µM] | TGI (SF-539 CNS) [µM] | TGI (NCI-H226 lung) [µM] | TGI (SNB-75 CNS) [µM] | GI50 (HS 578T breast) [µM] | GI50 (LOX IMVI melanoma) [µM] | GI50 (MDA-MB-231 breast) [µM] | GI50 (MDA-MB-435) [µM] | GI50 (NCI-H226 lung) [µM] | GI50 (NCI/ADR-RES ovarian) [µM] | GI50 (SF-539 CNS) [µM] | GI50 (SNB-75 CNS) [µM] |
| --- | --- | --- | --- | --- | --- | --- | --- | --- | --- | --- | --- | --- | --- | --- | --- | --- | --- | --- | --- |
| COCCOC(=O)c1c(C)n([O-])c2cc(Cl)c(Cl)cc2[n+]1=O | > 100 | 23.5 | 40.8 | 53.8 | 66.2 | > 100 | 27.4 | 18.8 | 51.1 |  |  |  |  |  |  |  |  |  |  |
| CN1CCc2[nH]c3ccccc3c2C1 |  | > 100 | > 100 |  |  |  | > 100 | > 100 | > 100 | > 100 | > 100 |  |  |  |  |  |  |  |  |
| COC1=C(OC)C(=O)C(Cc2c(Cl)nc3sc(C)cn23)=C(C)C1=O | 66.4 | 35.5 | 34.1 | 41.8 | 35.3 | 32.8 | 38.1 | 31.8 | 34.6 |  |  |  |  |  |  |  |  |  |  |
| CCCCCCCCCCCCCCCCCCOc1ccccc1CC(=O)OCC[N+]1(C)CCCCC1 | 6.53 |  | 3.18 | 3.89 | 3.2 |  | 46.6 |  | 3.89 | 6.25 | 3.72 | 2.32 | 1.75 | 1.83 | 1.7 | 2.18 | 14.9 | 1.97 | 1.39 |
| OC1(c2cccs2)c2cccc(Cl)c2C(O)(c2cccs2)c2c(Cl)cccc21 (stereo unspecified) | 33.4 | > 100 | > 100 | > 100 | > 100 | > 100 | > 100 | > 100 | > 100 | > 100 | > 100 |  |  |  |  |  |  |  |  |
| CC(CCN)(CCN)[N+](=O)[O-] | > 100 | > 100 | > 100 | > 100 | > 100 | > 100 | > 100 | > 100 | > 100 | > 100 | > 100 |  |  |  |  |  |  |  |  |
| CCCCCCCCCCCCCCCCCCNC(=O)C(N)Cc1ccc(OCc2ccccc2)cn1 (stereo unspecified) | 51.1 | 32.6 | 41.2 | 38.3 | 32.5 | 49.2 | 38.4 | 80.6 |  |  | 47.4 |  |  |  |  |  |  |  |  |
| CN1CCOC(c2ccc(Cl)cc2)O1 (stereo unspecified) |  | > 100 |  | > 100 | > 100 | > 100 | > 100 |  | > 100 | > 100 | > 100 |  |  |  |  |  |  |  |  |
| CN(C)CCCSc1nc2ccccc2[nH]1 | > 100 | > 100 | > 100 | > 100 | > 100 | > 100 | > 100 | > 100 |  | > 100 | > 100 |  |  |  |  |  |  |  |  |
| CN(CCCCCl)P(=O)(OCc1ccc([N+](=O)[O-])o1)OC[C@H]1O[C@@H](n2cc(F)c(=O)[nH]c2=O)C[C@@H]1O (stereo partly specified) | 8.68 | > 63.5 | 12.9 | 34.2 | 39 | 33.3 | 36.3 | 38.4 | 0.217 | > 86.6 | 6.95 |  |  |  |  |  |  |  |  |
| Cn1c2ccccc2n2c(N=O)c(-c3ccccc3)nc12 | > 100 | > 100 | > 100 | > 100 | > 100 | > 100 | > 100 | > 100 |  |  | 49.8 |  |  |  |  |  |  |  |  |
| O=C(Nc1ccc(Cl)cc1)c1cc2cc(N=Nc3ccccc3Cl)ccc2oc1=O |  | 48.1 |  |  |  |  |  | 30.3 | 31.3 | 46.9 | 72.5 |  |  |  |  |  |  |  |  |
| COc1cc2c(c(O)c1OC)-c1c(cc(OC)c(OC)c1OC)CC(C)C(C)C2 (stereo unspecified) | > 100 | > 100 | > 100 | > 100 | > 100 | > 100 |  | > 100 | > 100 | > 100 | > 100 |  |  |  |  |  |  |  |  |
| Nc1ncnc2c1ncn2C=C=CCO | > 100 |  | > 100 | > 100 | > 100 |  | > 100 | > 100 |  | > 100 | > 100 |  |  |  |  |  |  |  |  |
| Cc1ccc(S(=O)(=O)n2cc(-c3cc(C(F)(F)F)ccn3)c3cc(Br)ccc32)cc1 | 41.3 |  | 92.2 | 46.5 | > 100 | > 100 | > 100 | > 100 | 39.5 | 57 |  |  |  |  |  |  |  |  |  |
| C=C1c2ccccc2C(=O)c2c1c1c(C(=O)OC)c(O)ccc1n2Cc1ccccc1 | 1.73 | 0.799 | 0.628 | 1.54 | 0.885 | 1.55 | 0.723 | 0.53 | 0.657 |  | 0.899 |  |  |  |  |  |  |  |  |
| CC(C)=CCC/C(C)=C/CC/C(C)=C/CC/C(C)=C/C=C/C=C(\C)CC/C=C(\C)CC/C=C(\C)CCC=C(C)C | > 100 | 36.4 | 49.9 | > 100 | > 100 | > 100 | > 82.9 | > 100 | > 100 | > 100 | > 100 |  |  |  |  |  |  |  |  |
| O=C([O-])C[n+]1ccccc1 | > 100 | > 100 | > 100 | > 100 | > 100 | > 100 | > 100 | > 100 | > 100 | > 100 | > 100 |  |  |  |  |  |  |  |  |
| C=CCN1C(=O)C=C(c2ccccc2)n2ncc3cccc1c32 | > 100 | > 100 | > 100 | > 100 |  | > 100 | > 100 | > 100 | > 100 | > 100 |  |  |  |  |  |  |  |  |  |
| O=S1(=O)N=C(SCc2ccccc2)N(c2ccccc2)c2ccncc21 | 83.4 |  | > 100 | > 100 | > 100 | 89.6 | 91.1 |  | > 100 | > 100 | > 100 |  |  |  |  |  |  |  |  |
| CCOc1ccc(NC(=O)C(=O)CC(=O)c2sc(NNC(C)=O)nc2C)cc1 |  | > 100 | > 100 |  |  |  |  | > 100 | > 100 | > 100 | > 100 |  |  |  |  |  |  |  |  |
| NN(CC(=O)O)CC(=O)O | > 100 | > 100 | > 100 | > 100 | > 100 | > 100 | > 100 | > 100 | > 100 | > 100 |  |  |  |  |  |  |  |  |  |
| CCOc1cc(NC(C)=O)ccc1C(=O)NN1C(=O)C(Cl)C1c1ccccc1 (stereo unspecified) | 83.1 | 18 | 3.55 | 26.7 | 26 | 32.9 | 88.5 | 28.7 | 35.4 | 46.3 | 29.7 |  |  |  |  |  |  |  |  |
| Nc1ncnc2nc[nH]c12 |  | > 250 | > 250 |  |  |  | 99.5 | > 250 | > 250 | > 250 | > 155 |  |  |  |  |  |  |  |  |
